Assay results from patent US8022206B2 (OSI Pharmaceuticals, LLC, priority 2008, dated 2011).

Legend:
RON (human) = RON (human) (Homo sapiens, UniProt Q04912); assay: RON (human) AlphaScreen kinase assay, Km of ATP; assay type: biochemical; settings: AlphaScreen, Km of ATP; read-out: RON biochemical IC50
Procedure, shortened: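 Reaction was started with enzyme and run 30 min at RT. PT66 donor/acceptor beads in an EDTA-containing Tris pH 7.5 buffer were then added, and the signal was read after 1 h.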

MET (human) = MET (human) (Homo sapiens, UniProt P08581); assay: MET (human) AlphaScreen kinase assay, Km of ATP; assay type: biochemical; settings: AlphaScreen, Km of ATP; read-out: Met biochemical IC50
Procedure, shortened: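 Human MET at lot-optimised concentration in 50 mM Tris pH 7.4 buffer with 1 mM DTT, compound at 1% DMSO final; enzyme starts the reaction, 60 min at RT.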

RON (human), sequence (Q04912 25-1400): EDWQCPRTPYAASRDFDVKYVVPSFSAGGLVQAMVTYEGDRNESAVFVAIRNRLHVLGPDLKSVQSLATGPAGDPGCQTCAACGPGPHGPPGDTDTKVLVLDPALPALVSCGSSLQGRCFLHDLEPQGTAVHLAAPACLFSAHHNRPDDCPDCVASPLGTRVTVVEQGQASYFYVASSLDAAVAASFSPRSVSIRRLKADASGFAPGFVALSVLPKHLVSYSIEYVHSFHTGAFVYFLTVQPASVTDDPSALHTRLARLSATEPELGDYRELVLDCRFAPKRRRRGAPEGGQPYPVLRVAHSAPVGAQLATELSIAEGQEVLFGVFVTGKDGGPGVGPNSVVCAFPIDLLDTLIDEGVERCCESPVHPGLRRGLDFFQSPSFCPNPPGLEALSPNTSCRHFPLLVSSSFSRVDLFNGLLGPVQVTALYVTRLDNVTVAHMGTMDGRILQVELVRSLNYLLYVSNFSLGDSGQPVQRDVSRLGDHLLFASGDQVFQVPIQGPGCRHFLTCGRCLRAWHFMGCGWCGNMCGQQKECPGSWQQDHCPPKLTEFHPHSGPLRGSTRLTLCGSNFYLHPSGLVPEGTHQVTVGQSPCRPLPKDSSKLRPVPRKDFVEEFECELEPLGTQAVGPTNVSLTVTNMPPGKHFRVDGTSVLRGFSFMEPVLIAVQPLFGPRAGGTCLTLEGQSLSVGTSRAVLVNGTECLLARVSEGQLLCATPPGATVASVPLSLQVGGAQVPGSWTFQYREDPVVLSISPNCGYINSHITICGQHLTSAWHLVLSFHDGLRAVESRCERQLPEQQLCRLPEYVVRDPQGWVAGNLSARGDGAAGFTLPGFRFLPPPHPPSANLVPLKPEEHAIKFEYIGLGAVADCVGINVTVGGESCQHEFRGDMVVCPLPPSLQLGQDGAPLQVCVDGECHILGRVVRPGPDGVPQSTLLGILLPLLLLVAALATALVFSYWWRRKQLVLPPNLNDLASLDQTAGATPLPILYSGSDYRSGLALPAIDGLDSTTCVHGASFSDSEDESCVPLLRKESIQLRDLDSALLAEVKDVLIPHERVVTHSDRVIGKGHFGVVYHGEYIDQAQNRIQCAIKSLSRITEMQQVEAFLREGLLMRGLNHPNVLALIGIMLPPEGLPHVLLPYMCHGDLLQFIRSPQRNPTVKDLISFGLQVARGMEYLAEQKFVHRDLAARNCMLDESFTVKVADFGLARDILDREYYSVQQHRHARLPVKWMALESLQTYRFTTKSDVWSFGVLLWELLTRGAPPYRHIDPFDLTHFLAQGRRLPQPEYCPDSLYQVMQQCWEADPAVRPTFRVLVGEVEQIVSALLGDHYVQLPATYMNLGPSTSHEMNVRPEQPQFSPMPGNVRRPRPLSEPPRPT
MET (human), sequence (P08581 25-1390): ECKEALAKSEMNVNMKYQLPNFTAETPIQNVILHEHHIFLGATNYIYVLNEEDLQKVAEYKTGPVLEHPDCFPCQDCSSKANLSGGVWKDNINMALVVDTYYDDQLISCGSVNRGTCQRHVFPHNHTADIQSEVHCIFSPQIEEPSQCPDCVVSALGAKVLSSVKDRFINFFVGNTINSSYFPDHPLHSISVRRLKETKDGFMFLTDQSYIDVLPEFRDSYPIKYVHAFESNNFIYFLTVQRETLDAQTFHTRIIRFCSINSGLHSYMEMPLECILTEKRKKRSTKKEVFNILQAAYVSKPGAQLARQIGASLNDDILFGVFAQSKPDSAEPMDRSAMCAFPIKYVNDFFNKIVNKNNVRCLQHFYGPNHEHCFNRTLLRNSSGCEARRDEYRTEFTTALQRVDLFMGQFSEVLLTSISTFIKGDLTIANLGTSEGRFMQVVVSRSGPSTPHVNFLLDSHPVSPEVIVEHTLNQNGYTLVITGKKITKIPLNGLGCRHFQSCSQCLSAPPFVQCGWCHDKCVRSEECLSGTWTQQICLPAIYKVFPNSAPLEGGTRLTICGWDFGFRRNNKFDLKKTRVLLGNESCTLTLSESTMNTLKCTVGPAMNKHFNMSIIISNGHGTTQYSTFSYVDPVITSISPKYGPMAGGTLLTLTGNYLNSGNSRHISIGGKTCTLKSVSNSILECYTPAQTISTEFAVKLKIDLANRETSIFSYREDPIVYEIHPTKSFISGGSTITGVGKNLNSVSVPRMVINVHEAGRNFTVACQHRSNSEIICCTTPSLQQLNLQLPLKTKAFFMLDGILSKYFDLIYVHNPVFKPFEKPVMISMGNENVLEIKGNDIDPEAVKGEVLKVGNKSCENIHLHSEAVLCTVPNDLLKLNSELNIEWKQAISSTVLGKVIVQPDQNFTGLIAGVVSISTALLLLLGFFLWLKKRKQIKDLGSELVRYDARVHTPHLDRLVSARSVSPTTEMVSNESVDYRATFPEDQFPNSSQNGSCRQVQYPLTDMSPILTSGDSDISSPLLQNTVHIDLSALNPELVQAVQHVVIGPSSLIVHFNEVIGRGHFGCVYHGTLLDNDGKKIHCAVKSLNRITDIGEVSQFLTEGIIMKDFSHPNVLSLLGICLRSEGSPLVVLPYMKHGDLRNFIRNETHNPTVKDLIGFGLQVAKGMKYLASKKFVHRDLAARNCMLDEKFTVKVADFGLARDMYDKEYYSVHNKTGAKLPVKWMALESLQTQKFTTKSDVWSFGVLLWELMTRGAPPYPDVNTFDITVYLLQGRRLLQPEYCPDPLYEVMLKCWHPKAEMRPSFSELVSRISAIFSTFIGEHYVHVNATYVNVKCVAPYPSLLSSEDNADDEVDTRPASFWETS

Structure (SMILES) | IC50 (RON (human)) [nM] | IC50 (MET (human)) [nM]
C[C@@H](Oc1c(N)ncc2c(C3=CCN(C(=O)CO)CC3)coc12)c1c(Cl)ccc(F)c1Cl [Example 142, 1-[4-{6-Amino-7-[(1R)-1-(2,6-dichloro-3-fluorophenyl)ethoxy]furo[3,2-c]pyridin-3-yl}-3,6-dihydropyridin-1(2H)-yl]-2-hydroxyethanone] | 500 to 5000 | < 500
C[C@@H](Oc1c(N)ncc2c(-c3cnn(C4CCNCC4)c3)c(-c3ccccc3)oc12)c1c(Cl)ccc(F)c1Cl [Example 170, 7-[(R)-1-(2,6-Dichloro-3-fluorophenyl)ethoxy]-2-phenyl-3-(1-piperidin-4-yl-1H-pyrazol-4-yl)-furo[3,2-c]pyridin-6-ylamine] | 500 to 5000 | 500 to 5000
C[C@@H](Oc1c(N)ncc2c(-c3ccc(C#N)nc3)coc12)c1c(Cl)ccc(F)c1Cl [Example 125, 5-{6-Amino-7-[(R)-1-(2,6-dichloro-3-fluorophenyl)-ethoxy]furo[3,2-c]pyridin-3-yl}pyridine-2-carbonitrile] | 5000 to 20000 | 500 to 5000
Nc1ncc2c(-c3cnn(C4CCNCC4)c3)coc2c1OC(c1c(F)ccc(F)c1Cl)C1CC1 (centres unmarked) [Example 367, 7-[(2-Chloro-3,6-difluorophenyl)cyclopropylmethoxy]-3-(1-piperidin-4-yl-1H-pyrazol-4-yl)furo[3,2-c]pyridin-6-ylamine] | < 500 | < 500
Nc1ncc2c(-c3cnn(C4CCNCC4)c3)coc2c1OC(CCc1ccccc1)c1c(Cl)ccc(F)c1Cl (centres unmarked) [Example 368, 7-[1-(2,6-Dichloro-3-fluorophenyl)-3-phenylpropoxy]-3-(1-piperidin-4-yl-1H-pyrazol-4-yl)furo[3,2-c]pyridin-6-ylamine] | 500 to 5000 | 500 to 5000
C[C@@H]1CN(C(=O)N2CC=C(c3coc4c(O[C@H](C)c5c(Cl)ccc(F)c5Cl)c(N)ncc34)CC2)C[C@H](C)N1C (relative stereo) [Example 221, (4-{6-Amino-7-[(R)-1-(2,6-dichloro-3-fluorophenyl)ethoxy]-furo[3,2-c]pyridin-3-yl}-3,6-dihydro-2H-pyridin-1-yl)-((3R*,5S*)-3,4,5-trimethylpiperazin-1-yl)-methanone] | < 500 | < 500
COc1cccc(-c2coc3c(O[C@H](C)c4c(Cl)ccc(F)c4Cl)c(N)ncc23)c1 [Example 60, 7-[(R)-1-(2,6-Dichloro-3-fluorophenyl)ethoxy]-3-(3-methoxy-phenyl)furo[3,2-c]pyridin-6-ylamine] | 5000 to 20000 | 500 to 5000
COc1cccc(C(C)Oc2c(N)ncc3c(-c4cnn(C5CCNCC5)c4)coc23)c1 (centres unmarked) [Example 345, 7-[1-(3-Methoxyphenyl)-ethoxy]-3-(1-piperidin-4-yl-1H-pyrazol-4-yl)furo[3,2-c]pyridin-6-ylamine] | 500 to 5000 | 500 to 5000
C[C@@H](Oc1c(N)ncc2c(-c3ccc(C(=O)NCCN4CCCC4)cc3)coc12)c1c(Cl)ccc(F)c1Cl [Example 101, 4-{6-Amino-7-[(R)-1-(2,6-dichloro-3-fluorophenyl)ethoxy]-furo[3,2-c]pyridin-3-yl}-N-(2-pyrrolidin-1-ylethyl)benzamide] | 500 to 5000 | < 500
C[C@@H](Oc1c(N)ncc2c(-c3cccc(C(N)=O)c3)coc12)c1c(Cl)ccc(F)c1Cl [Example 70, 3-{6-Amino-7-[(R)-1-(2,6-dichloro-3-fluorophenyl)ethoxy]-furo[3,2-c]pyridin-3-yl}benzamide] | 500 to 5000 | 500 to 5000
C[C@@H](Oc1c(N)ncc2c(C3=CCN(C(=O)N4CCCCC4)CC3)coc12)c1c(Cl)ccc(F)c1Cl [Example 32, (4-{6-Amino-7-[(R)-1-(2,6-dichloro-3-fluorophenyl)-ethoxy]-furo[3,2-c]pyridin-3-yl}-3,6-dihydro-2H-pyridin-1-yl)-piperidin-1-ylmethanone] | 500 to 5000 | 500 to 5000
C[C@@H](Oc1c(N)ncc2c(C3=CCN(C(=O)c4ccc[nH]4)CC3)coc12)c1c(Cl)ccc(F)c1Cl [Example 234, (4-{6-Amino-7-[(R)-1-(2,6-dichloro-3-fluorophenyl)ethoxy]-furo[3,2-c]pyridin-3-yl}-3,6-dihydro-2H-pyridin-1-yl)-(1H-pyrrol-2-yl)-methanone] | 500 to 5000 | 500 to 5000

The next lines start with the values.

IC50 (RON (human)) [nM] | IC50 (MET (human)) [nM] | Structure (SMILES)
< 500 | < 500 | CC(Cc1cccc(Cl)c1)Oc1c(N)ncc2c(-c3cnn(C4CCNCC4)c3)coc12 (centres unmarked) [Example 427, 7-[2-(3-Chlorophenyl)-1-methylethoxy]-3-(1-piperidin-4-yl-1H-pyrazol-4-yl)furo[3,2-c]pyridin-6-ylamine]
5000 to 20000 | 500 to 5000 | Cn1c(Cc2ccccc2)ncc(-c2ccc(COc3c(N)ncc4c(Br)coc34)cc2)c1=O [Example 465, 5-[4-(6-Amino-3-bromofuro[3,2-c]pyridin-7-yloxymethyl)phenyl]-2-benzyl-3-methyl-3H-pyrimidin-4-one]
< 500 | < 500 | CC(Oc1c(N)ncc2c(-c3cnn(C4CCNCC4)c3)coc12)c1c(Cl)cc(Br)cc1Cl (centres unmarked) [Example 442, 7-[1-(4-Bromo-2,6-dichlorophenyl)ethoxy]-3-(1-piperidin-4-yl-1H-pyrazol-4-yl)furo[3,2-c]pyridin-6-ylamine]
500 to 5000 | < 500 | CC(Oc1c(N)ncc2c(-c3cnn(C4CCNCC4)c3)coc12)c1ccccc1Br (centres unmarked) [Example 400, 7-[1-(2-Bromophenyl)ethoxy]-3-(1-piperidin-4-yl-1H-pyrazol-4-yl)furo[3,2-c]pyridin-6-ylamine]
500 to 5000 | 500 to 5000 | CC(Oc1c(N)ncc2c(-c3cnn(C4CCNCC4)c3)coc12)c1ccccc1F (centres unmarked) [Example 374, 7-[1-(2-Fluorophenyl)ethoxy]-3-(1-piperidin-4-yl-1H-pyrazol-4-yl)furo[3,2-c]pyridin-6-ylamine]
500 to 5000 | < 500 | Cc1cccc(Cl)c1C(C)Oc1c(N)ncc2c(-c3cnn(C4CCNCC4)c3)coc12 (centres unmarked) [Example 375, 7-[1-(2-Chloro-6-methylphenyl)ethoxy]-3-(1-piperidin-4-yl-1H-pyrazol-4-yl)furo[3,2-c]pyridin-6-ylamine]
5000 to 20000 | 500 to 5000 | C[C@H](Oc1c(N)ncc2c(-c3cnn(C4CCNCC4)c3)coc12)c1nnc2ccc(-c3cnn(C)c3)nn12 [Example 479, 7-{(1S)-1-[6-(1-methyl-1H-pyrazol-4-yl) [1,2,4]triazolo[4,3-b]pyridazin-3-yl]ethoxy}-3-[1-(piperidin-4-yl)-1H-pyrazol-4-yl]furo[3,2-c]pyridin-6-amine]
500 to 5000 | < 500 | CC(Oc1c(N)ncc2c(-c3cnn(C4CCNCC4)c3)coc12)c1cccc(C#N)c1 (centres unmarked) [Example 393, 3-{1-[6-Amino-3-(1-piperidin-4-yl-1H-pyrazol-4-yl)furo[3,2-c]pyridin-7-yloxy]ethyl}benzonitrile]
500 to 5000 | < 500 | Nc1ncc2c(-c3cnn(C4CCNCC4)c3)coc2c1O[C@H]1CCC[C@H]1c1ccccc1 [Example 407]
500 to 5000 | < 500 | CC(Cc1c(Cl)cccc1C(F)(F)F)Oc1c(N)ncc2c(-c3cnn(C4CCNCC4)c3)coc12 (centres unmarked) [Example 440, 7-[2-(2-Chloro-6-trifluoromethylphenyl)-1-methylethoxy]-3-(1-piperidin-4-yl-1H-pyrazol-4-yl)furo[3,2-c]pyridin-6-ylamine]
